{"source": "patent US7601332B2", "about": "“Vitamin receptor binding drug delivery conjugates” (priority 2003, dated 2009)", "key": {"[1]": {"test": "Toxicity based on animal body weights in tumor-bearing mice", "type": "in vivo", "details": "Balb/c mice, s.c. M109 tumors, i.v. twice a week for 4 weeks, 2-10 μmol/kg", "procedure": "The anti-tumor activity of the compounds of Examples 9b (EC111) and 9c (EC112), where the drug is daunorubicin, when administered intravenously (i.v.) to tumor-bearing animals, was evaluated in Balb/c mice bearing subcutaneous M109 tumors. Four days post tumor inoculation in the subcutis of the right axilla with 1×10^6 M109 cells, mice (5/group) were injected i.v. twice a week for 4 weeks with 2-10 μmol/kg of the compound of either Example 9b or Example 9c or with unconjugated daunorubicin or PBS. Tumor growth was measured using calipers at 3-day or 4-day intervals in each treatment group. Tumor volumes were calculated using the equation V=a×b^2/2, where “a” is the length of the tumor and “b” is the width expressed in millimeters. Animal body weight was also determined at 3-day or 4-day intervals.\nThe protocol was as described in Example 42 except that the compound of Example 10a (EC105) was used, where the drug is bis-indolyl-seco-CBI. The compound of Example 10a was injected at a dose of 0.3 μmol/kg. Also, two subcutaneous tumor models were tested including the M109 model (folate receptor-positive) and the 4T1 model (folate receptor-negative), and in some animals a 67-fold excess of free folate (20 μmol/kg; FA) was coinjected with the conjugate (i.e., the compound of Example 10a)."}, "[2]": {"test_system": "M109 tumors (folate receptor-positive)", "test": "Inhibition of subcutaneous M109 tumor growth in mice", "type": "in vivo", "details": "Balb/c mice, s.c. M109 tumors, i.v. twice a week for 4 weeks, 2-10 μmol/kg", "procedure": "The anti-tumor activity of the compounds of Examples 9b (EC111) and 9c (EC112), where the drug is daunorubicin, when administered intravenously (i.v.) to tumor-bearing animals, was evaluated in Balb/c mice bearing subcutaneous M109 tumors. Four days post tumor inoculation in the subcutis of the right axilla with 1×10^6 M109 cells, mice (5/group) were injected i.v. twice a week for 4 weeks with 2-10 μmol/kg of the compound of either Example 9b or Example 9c or with unconjugated daunorubicin or PBS. Tumor growth was measured using calipers at 3-day or 4-day intervals in each treatment group. Tumor volumes were calculated using the equation V=a×b^2/2, where “a” is the length of the tumor and “b” is the width expressed in millimeters. Animal body weight was also determined at 3-day or 4-day intervals. […]\nThe anti-tumor activity of the compound of Example 16b (EC145), where the drug is deacetylvinblastine monohydrazide, when administered intravenously (i.v.) to tumor-bearing animals, was evaluated in Balb/c mice bearing subcutaneous M109 tumors. […] Tumor growth was measured using calipers at 2-day or 3-day intervals in each treatment group. Tumor volumes were calculated using the equation V=a×b^2/2, where “a” is the length of the tumor and “b” is the width expressed in millimeters. […]"}}}
{"smiles": "COc1cccc2c1C(=O)c1c(O)c3c(c(O)c1C2=O)C[C@@](O)(C(=O)CO)C[C@@H]3O[C@H]1C[C@H](N)[C@H](O)[C@H](C)O1", "note": "[doxorubicin]", "values": [{"measurement": "toxicity based on animal body weights", "setting": "[1]", "value": "concomitant toxicity"}, {"measurement": "anti-tumor activity (growth of M109 tumors)", "setting": "[2]", "value": "provided an anti-tumor response"}]}
{"smiles": "COc1cccc2c1C(=O)c1c(O)c3c(c(O)c1C2=O)C[C@@](O)(/C(CO)=N\\NC(=O)CCN1C(=O)CC(SC[C@H](NC(=O)CC[C@H](NC(=O)c2ccc(NCc4cnc5nc(N)[nH]c(=O)c5n4)cc2)C(=O)O)C(=O)O)C1=O)C[C@@H]3O[C@H]1CC(N)[C@H](O)C(C)O1", "note": "(stereo partly shown) [Example 9c]", "values": [{"measurement": "toxicity based on animal body weights", "setting": "[1]", "value": "no apparent toxicity"}, {"measurement": "anti-tumor activity (growth of M109 tumors)", "setting": "[2]", "value": "effective in delaying the growth of M109 tumors"}]}
